Laboratory results published in patent publication US20260021122A1, “CANNABINOIDS AND USES THEREOF IN TREATMENT OF A DISEASE” (TECHNION RESEARCH & DEVELOPMENT FOUNDATION LIMITED, priority 2022, published 2026).

Tested on: BM-MDSCs
Assay: BM-MDSCs treated with conditioned media from treated B16F10 cells: myeloid subpopulation frequencies and F4/80
Format: cell-based, mice
Settings: for reduction in the F4/80 MFI in Ly6C+ cells compared to DMSO: CM from treated B16F10 cells
Description: Bone-marrow-derived cells (BMDCs) were isolated from the fibula and tibia bones of healthy female WT C57BL/6 mice (8-12-week-old). Red blood cells were removed by using red blood lysis buffer (Biological industries, Cat #01-888-1B). Remaining cells were counted and 1×10^6 cells were seeded in complete RPMI (Sigma, Cat #R8758) containing 10% FBS (Sigma, Cat #F7524), 1% L-Glutamine (Sartorius, Cat #03-020-1B), 1% Penicillin/[…] (Sartorius, Cat #03-031-1B), 1% MEM-Eagle (Sartorius, Cat #01-340-1B), 2.5% HEPES (Sartorius, Cat #03-025-1B) and 1% sodium pyruvate (Sartorius, Cat #03-042-1B) and supplemented with 20 ng/ml of GM-CSF and IL-6 (R&D systems, 415-ML and 406-ML). Cells were incubated at 37° C. and 5% CO2 for 4 days and then treated with conditioned media, which was the media collected from B16F10 cells treated with either DMSO, CBG, or the high-CBG extract 3704 as indicated.
To differentiate the subpopulation of myeloid cells, BMDCs and myeloid cells from tumors were stained for the extracellular makers Ly6C-BV421 (BioLegend, Clone HK1.4; Cat #128032) or Ly6C-FITC (BioLegend, Cat #128096, Clone HK1.4), Ly6G-APC (BioLegend, Clone 1A8; Cat #127614), Ly6G-BV421 (BioLegend, Cat #127627, clone 1A8), PECy7-F4/80 (BioLegend, Clone BM8 Cat #123113), BV605-CD86 (BioLegend, Clone GL-1, Cat #105037), APC-CD206 (Biolegend, Clone CO68C2, Cat #141708) and BV711-CD45 (BioLegend, Clone 30F11, Cat #103147). Cells from tumors were also stained with PE-CD3+ (BioLegend, Clone 17A2, Cat #100206) to identify the overall T-cell population. To characterize the cells in the subpopulations, cells were fixed and permeabilized with the Intracellular Fixation and Permeabilization Buffer Set (eBioscience Cat #88-8824-00) and stained with FITC-iNOS (Thermo, Clone CXNFT, Cat #53592082) or FITC-Arginase-1 (Thermo, Clone AlexF5, Cat #53-3697-82). These cells were also stained with Fixable viability Dye (FVD)-eflour 780 (Thermo, Cat #65086514) to exclude dead cells.

For `CCCCCc1cc(O)c(C/C=C(\C)CCC=C(C)C)c(O)c1` [CBG, cannabigerol], the “overall percentage of monocytes (Ly6C+/Ly6G− cells)” value (BM-MDSCs treated 24 hours with CM from B16F10 treated with CBG 1.5 μg/ml or 3704 2 μg/ml) was “did not change”, the “PMN-MDSC frequencies (Ly6C+/Ly6G+)” value (CM from B16F10 treated with CBG 1.5 μg/ml or 3704 2 μg/ml) was “not affected by any treatment” and the “MO-MDSC (Ly6Chigh/Ly6G−) percentages” value (CM from B16F10 treated with CBG 1.5 μg/ml or 3704 2 μg/ml, compared to B16F10 treated with DMSO) was “significant decrease in MO-MDSC percentages”. For the same molecule, the “reduction in the F4/80 MFI in Ly6C+ cells compared to DMSO” value (24 hours) was “trend was apparent after 24 hours” and the “reduction in the F4/80 MFI in Ly6C+ cells compared to DMSO” value (48 hours) was “statistically significant after 48 hours”.
